From PubChem BioAssay AID248 (DTP/NCI, 2004)
Where “and” joins values, the source holds several entries; their conditions need not be identical. Equal values may be shown once. Inconclusive results and toxic doses are left out. No stated cut-off is given here; in the data, active means T/C of 150% or more; inactive means T/C below 125%.

Test system: L1210 leukemia ip in BDF1 mice, survival T/C
Assay: NCI In Vivo Anticancer Drug Screen. Data for tumor model L1210 Leukemia (intraperitoneal) in B6D2F1 (BDF1) mice
Conditions: endpoint: mean survival time, higher = longer survival
Summary of the method: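 In this screen, tumor-bearing mice given compound are compared to those given vehicle, and their survival values are reported as a treated-to-control quotient.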

[1] = dose: 100.0 mg/kg/injection, schedule: Q01DX001 (ip), vehicle: Klucel (hydroxypropylcellulose) (HPC)
[2] = dose: 200.0 mg/kg/injection, schedule: Q01DX001 (ip), vehicle: Klucel (hydroxypropylcellulose) (HPC)
[3] = dose: 100.0 mg/kg/injection, schedule: Q04DX002 (ip), vehicle: Klucel (hydroxypropylcellulose) (HPC)
[4] = dose: 200.0 mg/kg/injection, schedule: Q04DX002 (ip), vehicle: Klucel (hydroxypropylcellulose) (HPC)
[5] = dose: 400.0 mg/kg/injection, schedule: Q04DX002 (ip), vehicle: Klucel (hydroxypropylcellulose) (HPC)

Measured: T/C

O=C(N=c1scc(-c2ccc(Br)cc2)n1-c1cccc2ccccc12)c1ccccc1F
inactive: dose: 25.0 mg/kg/injection, schedule: Q01DX009 (ip), vehicle: saline with Tween-80 89 % of control | dose: 50.0 mg/kg/injection, schedule: Q01DX009 (ip), vehicle: saline with Tween-80 87 % of control | dose: 100.0 mg/kg/injection, schedule: Q01DX009 (ip), vehicle: saline with Tween-80 93 % of control

O=[N+]([O-])/C(=C/c1ccccc1)c1ccccc1
inactive: dose: 50.0 mg/kg/injection, schedule: Q01DX001 (ip), vehicle: saline 102 % of control | dose: 100.0 mg/kg/injection, schedule: Q01DX001 (ip), vehicle: saline 108 % of control | dose: 200.0 mg/kg/injection, schedule: Q01DX001 (ip), vehicle: saline 104 % of control

c1coc(CNc2ncnc3nc[nH]c23)c1
inactive: dose: 75.0 mg/kg/injection, schedule: Q01DX001 (ip), vehicle: other 92 % of control | dose: 75.0 mg/kg/injection, schedule: Q01DX009 (ip), vehicle: Klucel (hydroxypropylcellulose) (HPC) 103 % of control | dose: 150.0 mg/kg/injection, schedule: Q01DX001 (ip), vehicle: other 98 % of control | dose: 150.0 mg/kg/injection, schedule: Q01DX009 (ip), vehicle: Klucel (hydroxypropylcellulose) (HPC) 97 % of control | dose: 300.0 mg/kg/injection, schedule: Q01DX001 (ip), vehicle: other 97 % of control | dose: 300.0 mg/kg/injection, schedule: Q01DX009 (ip), vehicle: Klucel (hydroxypropylcellulose) (HPC) 106 % of control

C/C=C/C=C/COC(=O)C=C(C)C
inactive: dose: 100.0 mg/kg/injection, schedule: Q04DX002 (ip), vehicle: saline 107 % of control | dose: 200.0 mg/kg/injection, schedule: Q04DX002 (ip), vehicle: saline 101 % of control | dose: 400.0 mg/kg/injection, schedule: Q04DX002 (ip), vehicle: saline 107 % of control

COc1ccc(/C=C/c2cnnc3ccccc23)cc1OC
inactive: [1] 113 % of control | [2] 98 % of control

O=C(/C=C(\OB(F)F)c1ccccc1)c1ccccc1
inactive: dose: 50.0 mg/kg/injection, schedule: Q01DX001 (ip), vehicle: carboxymethylcellulose (CMC) 102 % of control | dose: 100.0 mg/kg/injection, schedule: Q01DX001 (ip), vehicle: carboxymethylcellulose (CMC) 94 % of control | dose: 200.0 mg/kg/injection, schedule: Q01DX001 (ip), vehicle: carboxymethylcellulose (CMC) 100 % of control | dose: 400.0 mg/kg/injection, schedule: Q01DX001 (ip), vehicle: carboxymethylcellulose (CMC) 90 % of control

COc1cc2ccc3c4cc5c(cc4c[n+](C)c3c2cc1OC)OCO5
inactive: dose: 10.0 mg/kg/injection, schedule: Q01DX009 (ip), vehicle: saline 124 % of control | dose: 20.0 mg/kg/injection, schedule: Q01DX009 (ip), vehicle: saline 112 % of control | dose: 40.0 mg/kg/injection, schedule: Q01DX009 (ip), vehicle: saline 122 % of control

CCCCSc1nc2ccc([N+](=O)[O-])cc2s1
inactive: dose: 100.0 mg/kg/injection, schedule: Q04DX002 (ip), vehicle: gum acacia 95 % of control | dose: 200.0 mg/kg/injection, schedule: Q04DX002 (ip), vehicle: gum acacia 95 % of control | dose: 400.0 mg/kg/injection, schedule: Q04DX002 (ip), vehicle: gum acacia 95 % of control

O=C(N1CCC(CCCc2ccccc2)CC1)C(Cl)(Cl)Cl
inactive: [3] 95 % of control | [4] 95 % of control | [5] 100 % of control

COC1OC(CCl)C(OC(=O)c2ccccc2)C(OC(=O)c2ccccc2)C1OC(=O)c1ccccc1 (centres undefined)
inactive: [3] 114 % of control | [4] 101 % of control | [5] 104 % of control

CCOC(=O)c1[nH]c(C)c(C(=O)OCC)c1-c1ccc(OC)cc1
inactive: [1] 100 % of control | dose: 100.0 mg/kg/injection, schedule: Q04DX003 (ip), vehicle: Klucel (hydroxypropylcellulose) (HPC) 96 % of control | [2] 93 % of control | dose: 200.0 mg/kg/injection, schedule: Q04DX003 (ip), vehicle: Klucel (hydroxypropylcellulose) (HPC) 108 % of control | dose: 400.0 mg/kg/injection, schedule: Q01DX001 (ip), vehicle: Klucel (hydroxypropylcellulose) (HPC) 98 % of control | dose: 400.0 mg/kg/injection, schedule: Q04DX003 (ip), vehicle: Klucel (hydroxypropylcellulose) (HPC) 96 % of control

CCC#CC(O)(C(=O)OCC)C1CCCCC1 (centres undefined)
inactive: dose: 100.0 mg/kg/injection, schedule: Q01DX001 (ip), vehicle: other 104 % of control | dose: 200.0 mg/kg/injection, schedule: Q01DX001 (ip), vehicle: other 96 % of control | dose: 400.0 mg/kg/injection, schedule: Q01DX001 (ip), vehicle: other 104 % of control

CCCCCCCCCCCCCCCCN1CCN(CCCCCCCCCCCCCCCC)CC1
inactive: [3] 108 % of control | [4] 101 % of control | [5] 101 % of control

O=C(C[n+]1cccc(/C=N\O)c1)c1ccc(-c2ccc(C(=O)C[n+]3cccc(/C=N\O)c3)cc2)cc1
inactive: dose: 1.5 mg/kg/injection, schedule: Q01DX009 (ip), vehicle: Klucel (hydroxypropylcellulose) (HPC) 97 % of control | dose: 2.5 mg/kg/injection, schedule: Q01DX009 (ip), vehicle: Klucel (hydroxypropylcellulose) (HPC) 102 % of control | dose: 3.0 mg/kg/injection, schedule: Q01DX009 (ip), vehicle: Klucel (hydroxypropylcellulose) (HPC) 97 % of control | dose: 4.0 mg/kg/injection, schedule: Q01DX009 (ip), vehicle: Klucel (hydroxypropylcellulose) (HPC) 97 % of control | dose: 6.0 mg/kg/injection, schedule: Q01DX009 (ip), vehicle: Klucel (hydroxypropylcellulose) (HPC) 94 % of control and 102 % of control | dose: 9.0 mg/kg/injection, schedule: Q01DX009 (ip), vehicle: Klucel (hydroxypropylcellulose) (HPC) 92 % of control | dose: 12.0 mg/kg/injection, schedule: Q01DX009 (ip), vehicle: Klucel (hydroxypropylcellulose) (HPC) 98 % of control | dose: 12.5 mg/kg/injection, schedule: Q01DX009 (ip), vehicle: Klucel (hydroxypropylcellulose) (HPC) 111 % of control

O=C(O)C1C2c3ccccc3C(C1C(=O)O)[n+]1ccccc12 (centres undefined)
inactive: dose: 100.0 mg/kg/injection, schedule: Q01DX009 (ip), vehicle: saline 95 % of control | dose: 200.0 mg/kg/injection, schedule: Q01DX009 (ip), vehicle: saline 103 % of control | dose: 400.0 mg/kg/injection, schedule: Q01DX009 (ip), vehicle: saline 94 % of control

CN(CCO)N=Nc1ccccc1C#N
inactive: dose: 12.5 mg/kg/injection, schedule: Q01DX009 (ip), vehicle: other 103 % of control | dose: 25.0 mg/kg/injection, schedule: Q01DX009 (ip), vehicle: other 91 % of control | dose: 25.0 mg/kg/injection, schedule: Q04DX003 (ip), vehicle: other 95 % of control | dose: 50.0 mg/kg/injection, schedule: Q04DX003 (ip), vehicle: other 93 % of control | dose: 100.0 mg/kg/injection, schedule: Q04DX003 (ip), vehicle: other 95 % of control | dose: 200.0 mg/kg/injection, schedule: Q04DX003 (ip), vehicle: other 98 % of control | dose: 400.0 mg/kg/injection, schedule: Q04DX003 (ip), vehicle: other 98 % of control

O=[N+]([O-])c1ccccc1CSc1ncnc2nc[nH]c12
inactive: dose: 132.0 mg/kg/injection, schedule: Q04DX003 (ip), vehicle: saline with Tween-80 102 % of control | dose: 200.0 mg/kg/injection, schedule: Q04DX003 (ip), vehicle: saline with Tween-80 100 % of control | dose: 300.0 mg/kg/injection, schedule: Q04DX003 (ip), vehicle: saline with Tween-80 105 % of control

C=C(C)C1(CC)C(=O)NC(=O)N(C)C1=O (centres undefined)
inactive: dose: 75.0 mg/kg/injection, schedule: Q01DX001 (ip), vehicle: carboxymethylcellulose (CMC) 102 % of control | dose: 75.0 mg/kg/injection, schedule: Q01DX001 (ip), vehicle: saline 97 % of control | dose: 150.0 mg/kg/injection, schedule: Q01DX001 (ip), vehicle: carboxymethylcellulose (CMC) 105 % of control | dose: 150.0 mg/kg/injection, schedule: Q01DX001 (ip), vehicle: saline 102 % of control | dose: 300.0 mg/kg/injection, schedule: Q01DX001 (ip), vehicle: carboxymethylcellulose (CMC) 103 % of control | dose: 300.0 mg/kg/injection, schedule: Q01DX001 (ip), vehicle: saline 108 % of control

CCC(=O)OC1(c2ccccc2)CCN(C/C=C/c2cccc3ccccc23)CC1
inactive: dose: 100.0 mg/kg/injection, schedule: Q01DX001 (ip), vehicle: gum acacia 103 % of control | dose: 200.0 mg/kg/injection, schedule: Q01DX001 (ip), vehicle: gum acacia 103 % of control
